Experimental findings from ChEMBL document CHEMBL4513101, “Naegleria gruberi Pathogen Box compounds screening” (2021) are described below.

In general, inhibition refers to the percentage by which the read-out fell short of the control.

Calls of active or inactive are those of the source. Cut-off read from the data, not from the text of the source: active = inhibition of 80% or more and inactive = less.

One assay has as its system Naegleria gruberi.
Assay: not given
Particulars: NEG-M, at 10 µM.
On to MMV688978, for which the inhibition is 60.5%.

Another assay relates to Naegleria gruberi. Put plainly: microbe, parasite or virus in culture. Particulars: NEG-M, CONC 10 uM. The class given is functional.
Description: Growth inhibiting activity of Naegleria gruberi in vitro
As to `Cc1nn(C)c(C)c1NS(=O)(=O)c1c(Cl)cc(-c2ccnc(N3CCNCC3)c2)cc1Cl`, the inhibition at 10 µM is 58.2% (not active). In the case of `Cc1[nH]c2cc(F)cc(F)c2c(=O)c1-c1ccc(Oc2ccc(OC(F)(F)F)cc2)cc1`, the inhibition at 10 µM is recorded as 11.3% (not active). On the same count and under the same terms, then `Cc1ccc(S(=O)(=O)Nc2ccc(CN3CCN(C(=O)c4cccc(C#N)c4)CC3)cc2)cc1`, with 19.9% (not active).

With `O=C(NCCN1CCCC1)c1cc(NCCN2CCOCC2)nc2ccc(Cl)cc12`, the inhibition at 10 µM is 11% (not active). On the same count and under the same terms, the figure for `O=C(Nc1ccccc1)c1ccc(-c2cc3ccncc3cc2OC2CCNCC2)s1` is 12.6% (not active). For the compound `Nc1nccc2ccc(-c3ccc4nccn4c3)cc12`, the inhibition at 10 µM is recorded as 8.2% (not active). In the case of `Cc1nn2c(O)c3c(nc2c1-c1ccc(F)cc1)CCCC3`, the inhibition at 10 µM is listed as 30.1% (not active). The same measure, in the same setting: then `O=C(Nc1nnc(S)s1)c1cc(Br)ccc1Cl`, with 11.5% (not active). `O=C(N[C@H](Cc1ccccc1)C(=O)Nc1ccccc1N1CCOCC1)c1cccs1`: the inhibition at 10 µM is given as 29.6% (not active). Still for that read-out and setting: then `CCc1ccc(C(NCc2nc(N)nc(N(C)C)n2)C(C)C)cc1` (centres undefined), with 18.9% (not active). As for `Cc1cc(C)c2cc(C(=O)NC3CCCCCCC3)[nH]c2c1`, the inhibition at 10 µM is given as 30.2% (not active). In the case of `CO[C@H]1/C=C\O[C@@]2(C)Oc3c(C)c(O)c4c(O)c(/c(=C/NN5CCN(C)CC5)c(O)c4c3C2=O)=N\C(=O)/C(C)=C\C=C/[C@H](C)[C@H](O)[C@@H](C)[C@@H](O)[C@@H](C)[C@H](OC(C)=O)[C@@H]1C`, the inhibition at 10 µM is 0% (not active). On the same count and under the same terms, then `CCCCCCCCCCCCCCCCOP(=O)([O-])OCC[N+](C)(C)C` [MILTEFOSINE], with 4% (not active); and `Cc1cc(NC(=O)c2ccc(Oc3ccc(Cl)cc3O)o2)no1`, with 0% (not active); and `COc1ccccc1C(C)NCC(=O)Nc1cc(C(F)(F)F)ccc1Cl` (centres undefined), with 49.5% (not active).

Regarding `O=C(Nc1ccc2c(c1)B(O)OC2)c1ccccc1C(F)(F)F`, the inhibition at 10 µM is 89.8% (active). Still for that read-out and setting: the figure for `NS(=O)(=O)c1cncc(-c2ccc3nccc(-c4cn[nH]c4)c3n2)c1` is 0% (not active); for `Cc1cc(OCC(=O)NCc2ccccc2)c2cc(Br)ccc2n1` it is 22.1% (not active). Same read-out and setting: then `Cc1ccc2[nH]c(C3CCCNC3)c(-c3ccncc3)c2c1` (centres undefined), with 9.5% (not active); and `COc1ccc(Oc2ccc([C@@H](C)N(C)c3ncc4c(N)nc(N)nc4n3)cc2)cc1`, with 25.6% (not active); and `COc1cccc2c(C)nc(N=C(N)N)nc12`, with 24.2% (not active). The same measure, in the same setting: then `CC1=Nc2ccc(Cl)cc2C(c2ccccc2)N1CCNC(=O)CN(C)C` (centres undefined), with 4.7% (not active); and `CO/C=C(/C(=O)OC)c1ccccc1Oc1cc(Oc2ccccc2C#N)ncn1` [AZOXYSTROBIN], with 33.7% (not active). As to `CCNC(=O)C(C)Nc1nc(-c2cccnc2)nc2sc(C)c(C)c12` (centres undefined), the inhibition at 10 µM was 12.2% (not active). In the case of `C[C@H](C(N)=O)N1CCCC[C@H]1c1ccc(OCc2cccc(F)c2)cc1`, the inhibition at 10 µM was 15.8% (not active). Same read-out and setting: then `Clc1ccc(-n2cc(COc3ccnc4ccccc34)nn2)cc1`, with 75.2% (not active); and `COc1cc(CN2CCC3(C=Cc4ccccc43)CC2)cc2c1OCO2`, with 38.6% (not active). On the same count and under the same terms, then `CNC(=O)C1Cc2ccccc2N1C(=O)Cc1ccc(F)cc1` (centres undefined), with 38% (not active). Same read-out and setting: the figure for `C[C@H](C(N)=O)N1CCCC[C@@H]1c1ccc(OCc2cccc(F)c2)cc1` is 13.9% (not active). For `Nc1ncc(Br)cc1-c1nc2cc(Cl)cnc2[nH]1`, the inhibition at 10 µM is listed as 15.3% (not active). Still for that read-out and setting: the figure for `CC(=O)N1CCc2cc3nc(C)cc(C)c3cc21` is 19.9% (not active); for `CC1CCCN(C(=O)C(C)Nc2cc(Cl)ccc2N2CCOCC2)C1` (centres undefined) it is 43.8% (not active); for `COc1ccc(N(CCc2cccc(C)n2)C(=O)C2CCCCC2)cc1` it is 20% (not active). Still for that read-out and setting: then `CNc1snc(C)c1C(=O)NCCOc1ccc(OC)cc1`, with 40.5% (not active).

Regarding `NS(=O)(=O)c1cccc(-c2ccc3ncc(N4CCOCC4)nc3c2)c1`, the inhibition at 10 µM was 26% (not active). The same measure, in the same setting: the figure for `Nc1c2c(nc3sc4c(c13)CCCC4)CCCC2` is 48.3% (not active); for `O=C(Nc1nc(-c2ccccn2)cs1)c1cncn1-c1ccccc1` it is 45.9% (not active); for `C[C@H]1c2cccc(O)c2C(=O)C2=C(O)[C@]3(O)C(=O)C(C(N)=O)=C(O)[C@@H](N(C)C)[C@@H]3[C@@H](O)[C@@H]21` [DOXYCYCLINE] it is 59.8% (not active).

As for `CN1CCN(S(=O)(=O)c2ccc(-c3ccc4c(Nc5ncc(Cl)cn5)ccnc4c3)cc2)CC1`, the inhibition at 10 µM is given as 43.6% (not active).

In the case of `CCc1ccc(S(=O)(=O)Nc2cc(CN3CCN(CCC(C)C)CC3)ccc2C)cc1`, the inhibition at 10 µM is listed as 48.7% (not active). Still for that read-out and setting: the figure for `CC(=O)NC[C@H]1CN(c2ccc(N3CCSCC3)c(F)c2)C(=O)O1` [SUTEZOLID] is 45.7% (not active); for `COc1ccccc1OCCCCn1c(C2CC2)nc2ccccc21` it is 42.6% (not active). Same read-out and setting: then `CC1=Nc2ccc(Cl)cc2C(O)(c2ccc(C)cc2)N1CCN1CCCCC1` (centres undefined), with 31.1% (not active).
